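Tested at 5 concentrations; 48 h exposure; 96-well plates; endpoints linearly interpolated, else capped at highest concentration. GI50 = concentration required for 50% inhibition of growth.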 Calls of active or inactive are those of the source. Rule as the data show it: active = GI50 up to about 1.1 µM and inactive = higher.

Test systems include A498; A549; COLO 205; HCC 2998; HT-29; Hs-578T; KM12; MDA-N; NCI-H226; NCI/ADR-RES; OVCAR-3; OVCAR-5; OVCAR-8; SNB-19; SR; SW-620; U-251; UACC-257; UO-31; SK-MEL-5.
Holding throughout (assay): growth of human tumour cells (NCI), 48 h

Turning to `COC(=O)c1cc(/C=C2\Cc3cc4c(cc3C2=O)CCC4)cc2c1CCC2`, the GI50 in the experiment with A498, in the experiment with A549, in the experiment on COLO 205, in the experiment on HCC 2998, in the experiment on HT-29 and in the experiment with Hs-578T was > 100 µM (inactive) in each case. For the same molecule, the GI50 in the experiment on KM12, in the experiment with MDA-N, with NCI-H226, in the experiment with NCI/ADR-RES, in the experiment with OVCAR-3 and with OVCAR-5 was > 100 µM (inactive) in each case. Moreover, the GI50 in the experiment on OVCAR-8, in the experiment with SNB-19, in the experiment with SR, in the experiment on SW-620, in the experiment on U-251 and with UACC-257 was > 100 µM (inactive) throughout. Besides, the GI50 with UO-31 was > 100 µM (inactive).

For the molecule `CC1=Nc2sc3c(c2C2=NCCN12)CCCC3`, the GI50 in the experiment with A498 was 39.9 µM (inactive); in the experiment on COLO 205, 32.3 µM (inactive); with HCC 2998, 29.9 µM (inactive); in the experiment on HT-29, 18.6 µM (inactive); in the experiment with Hs-578T, 27.5 µM (inactive); in the experiment on KM12, 16.8 µM (inactive). The GI50 in the experiment on MDA-N was 22.3 µM (inactive); with NCI-H226 it was 15.1 µM (inactive); with NCI/ADR-RES it was 14.8 µM (inactive); in the experiment with OVCAR-3 it was 28.2 µM (inactive); with OVCAR-5, 30.7 µM (inactive); in the experiment on OVCAR-8, 15.3 µM (inactive). Further, the GI50 is 28.2 µM (inactive) in the experiment on SK-MEL-5; 39.6 µM (inactive) in the experiment on SNB-19; 23.2 µM (inactive) in the experiment with SR; 25.4 µM (inactive) in the experiment on SW-620; 29 µM (inactive) in the experiment with U-251; 20.2 µM (inactive) in the experiment with UACC-257. Further, the GI50 in the experiment on UO-31 is 17.1 µM (inactive).

For the molecule `O=C(C=P(c1ccccc1)(c1ccccc1)c1ccccc1)c1ccc(-c2cccc([N+](=O)[O-])c2)cc1`, the GI50 with A498 is 3.02 µM (inactive); in the experiment with A549 it was 3.64 µM (inactive); with COLO 205, 1.75 µM (inactive); in the experiment with HCC 2998, 1.66 µM (inactive); with HT-29 it was 1.75 µM (inactive); in the experiment with Hs-578T, 4.9 µM (inactive). For the same molecule, the GI50 was 3.85 µM (inactive) in the experiment with KM12; 2.88 µM (inactive) in the experiment on MDA-N; 5.01 µM (inactive) with NCI-H226; 3.6 µM (inactive) in the experiment with NCI/ADR-RES; 2.98 µM (inactive) in the experiment on OVCAR-3; 3.61 µM (inactive) in the experiment with OVCAR-5. The GI50 in the experiment with SK-MEL-5 is 2.22 µM (inactive); in the experiment on SNB-19, 5.07 µM (inactive); in the experiment on SR, 3.69 µM (inactive); in the experiment on SW-620, 3.91 µM (inactive); with U-251, 3.84 µM (inactive); in the experiment on UACC-257, 3.27 µM (inactive). Also, in the experiment on UO-31, the GI50 is 2.09 µM (inactive).

With `CC(=O)O[C@H]1C(=O)[C@@]2(C)[C@H]([C@H](OC(=O)c3ccc([N+](=O)[O-])cc3)[C@]3(O)C[C@H](OC(=O)[C@H](O)[C@@H](NC(=O)c4ccccc4)c4ccccc4)C(C)=C1C3(C)C)[C@]1(OC(C)=O)CO[C@@H]1C[C@@H]2O`, the GI50 with A498, in the experiment with A549, in the experiment on COLO 205, in the experiment with HCC 2998, with HT-29 and with Hs-578T was > 25 µM (inactive) each time. Moreover, the GI50 with KM12 was > 25 µM (inactive); in the experiment on MDA-N, 16.8 µM (inactive); in the experiment with NCI-H226 it was > 25 µM (inactive); in the experiment on NCI/ADR-RES, > 25 µM (inactive); in the experiment on OVCAR-5 it was > 25 µM (inactive); in the experiment on OVCAR-8, > 25 µM (inactive). For the same molecule, the GI50 with SK-MEL-5, in the experiment with SNB-19, with SR, in the experiment on SW-620, with U-251 and with UACC-257 was > 25 µM (inactive) in each case. In the experiment with UO-31, the GI50 is > 25 µM (inactive).

As for `Cc1ccc2nc(-c3ccc(N)c(Br)c3)sc2c1`, the GI50 is > 100 µM (inactive) with A498; 29 µM (inactive) with A549; 55.8 µM (inactive) in the experiment on COLO 205; 2.64 µM (inactive) in the experiment on HCC 2998; 40.7 µM (inactive) in the experiment with HT-29; 14.2 µM (inactive) in the experiment on Hs-578T. Besides, the GI50 is 7.41 µM (inactive) with KM12; > 100 µM (inactive) in the experiment with MDA-N; 17.5 µM (inactive) in the experiment with NCI-H226; 52.1 µM (inactive) in the experiment with NCI/ADR-RES; 10.1 µM (inactive) in the experiment with OVCAR-3; 47.3 µM (inactive) in the experiment on OVCAR-5. Moreover, the GI50 in the experiment on OVCAR-8 is 48.2 µM (inactive); in the experiment with SK-MEL-5, 79.1 µM (inactive); with SNB-19, 81.8 µM (inactive); in the experiment on SR, 11 µM (inactive); in the experiment with U-251 it was 37.5 µM (inactive); in the experiment with UACC-257 it was 20 µM (inactive). For the same molecule, the GI50 in the experiment with UO-31 is 5.27 µM (inactive).

With `CCN(CC)C(=O)COc1cc2c(O)c3c(O)c(C)c4c(c13)C(=O)C(C)(OC=CC(OC)C(C)C(OC(C)=O)C(C)C(O)C(C)C(O)C(C)C=CC=C(C)C(=O)N2)O4` (stereo not given), the GI50 in the experiment on A498, with A549, in the experiment on HCC 2998, in the experiment with HT-29, in the experiment on Hs-578T and in the experiment with KM12 was > 100 µM (inactive) each time. Besides, the GI50 in the experiment with MDA-N, in the experiment on NCI-H226, in the experiment on NCI/ADR-RES, in the experiment with OVCAR-3, in the experiment with OVCAR-5 and in the experiment with OVCAR-8 was > 100 µM (inactive) each time. The GI50 in the experiment with SK-MEL-5, in the experiment on SNB-19, with SR, with SW-620, in the experiment on U-251 and in the experiment on UACC-257 was > 100 µM (inactive) in each case. Further, the GI50 with UO-31 was > 100 µM (inactive).

As to `Cc1cc(NC(=O)NC(=O)c2ccccc2NC(=O)CN)ccc1Oc1ncc(Br)cn1`, the GI50 in the experiment with A498 was 0.454 µM (active); with A549, 0.879 µM (active); in the experiment with COLO 205 it was 0.249 µM (active); in the experiment with HCC 2998, 5.21 µM (inactive); with HT-29, 0.299 µM (active); with Hs-578T, 0.0308 µM (active). The GI50 was 0.401 µM (active) with KM12; 0.105 µM (active) in the experiment on MDA-N; 1.18 µM (inactive) in the experiment on NCI-H226; 0.13 µM (active) in the experiment on NCI/ADR-RES; 0.217 µM (active) in the experiment with OVCAR-3; 12.3 µM (inactive) in the experiment with OVCAR-5. For the same molecule, the GI50 in the experiment with OVCAR-8 was 1.17 µM (inactive); in the experiment with SNB-19, 0.929 µM (active); in the experiment on SR, 1.06 µM (active); in the experiment on SW-620, 0.618 µM (active); in the experiment on U-251 it was 0.743 µM (active); in the experiment with UACC-257, 3.52 µM (inactive). Moreover, in the experiment with UO-31, the GI50 is 0.246 µM (active).

On to `CCOC(CBr)OC1C(=O)OCC1(C)C` (stereo not given), for which the GI50 in the experiment on A498, in the experiment on A549, with COLO 205, in the experiment on HCC 2998, in the experiment on HT-29 and in the experiment with Hs-578T was > 100 µM (inactive) each time. The GI50 in the experiment on KM12, in the experiment on MDA-N, in the experiment on NCI-H226, in the experiment on NCI/ADR-RES, in the experiment with OVCAR-5 and with OVCAR-8 was > 100 µM (inactive) in each case. The GI50 in the experiment on SK-MEL-5, in the experiment with SNB-19, in the experiment on SR, in the experiment with SW-620, with U-251 and with UACC-257 was > 100 µM (inactive) each time. Also, the GI50 with UO-31 is > 100 µM (inactive).

As for `O=[N+]([O-])c1ccc(NN=C2c3ccccc3Cc3ccccc32)c([N+](=O)[O-])c1`, the GI50 is > 92 µM (inactive) in the experiment on A498; > 21.1 µM (inactive) with A549; 4.52 µM (inactive) in the experiment with COLO 205; 6.41 µM (inactive) in the experiment with HCC 2998; 2.88 µM (inactive) in the experiment on HT-29; 4.07 µM (inactive) in the experiment with Hs-578T. The GI50 in the experiment on KM12 was 2.98 µM (inactive); in the experiment with MDA-N, 1.88 µM (inactive); in the experiment on NCI-H226, 29.6 µM (inactive); with NCI/ADR-RES, 4.82 µM (inactive); with OVCAR-3, 2.39 µM (inactive); in the experiment with OVCAR-5, 12.3 µM (inactive). Besides, the GI50 in the experiment on OVCAR-8 was 45.8 µM (inactive); with SK-MEL-5, 4.27 µM (inactive); in the experiment on SR it was 2.07 µM (inactive); in the experiment with SW-620, 5.85 µM (inactive); in the experiment on U-251, 4.5 µM (inactive); with UACC-257, 6.35 µM (inactive). Moreover, the GI50 in the experiment on UO-31 is > 26.4 µM (inactive).

As for `O=c1n(CC2CO2)c(=O)n(CC2CO2)c(=O)n1CC1CO1` (stereo not given) [TEROXIRONE], the GI50 in the experiment with A498 is 30.3 µM (inactive); with A549, 13.7 µM (inactive); with COLO 205 it was 14.3 µM (inactive); with HCC 2998, 43.7 µM (inactive); in the experiment with HT-29, 13.9 µM (inactive); in the experiment with Hs-578T, 33.8 µM (inactive). For the same molecule, the GI50 with KM12 was 56.1 µM (inactive); in the experiment on MDA-N it was 20.8 µM (inactive); in the experiment with NCI-H226, 26.6 µM (inactive); with NCI/ADR-RES, 34 µM (inactive); in the experiment on OVCAR-3, 32.7 µM (inactive); in the experiment with OVCAR-5 it was 67.8 µM (inactive). The GI50 is 33.3 µM (inactive) with OVCAR-8; 26.2 µM (inactive) with SNB-19; 1.25 µM (inactive) with SR; 34 µM (inactive) with SW-620; 11 µM (inactive) with U-251; 32.7 µM (inactive) with UACC-257. In addition, in the experiment with UO-31, the GI50 was 25.7 µM (inactive).

The values are drawn from ChEMBL document CHEMBL1201862, “PubChem BioAssay data set” (2004).
